Columns and labels:
rat mGlu2 receptor = target: T1, rat mGlu2 receptor (Rattus norvegicus, UniProt P31421); assay: [3H]-LY354740 binding on mGlu2 transfected CHO cell membranes; details: inhibition of 10 nM [3H]-LY354740 binding, membranes of CHO cells transfected with rat mGlu2, room temperature, 1 hour
T1 construct: expressed in transfected cells; membranes prepared
Excerpt: [^3H]-LY354740 Binding on mGlu2 Transfected CHO Cell Membranes. Transfection and Cell Culture
cDNA encoding the rat mGlu2 receptor protein in pBluescript II was subcloned into the eukaryotic expression vector pcDNA I-amp from Invitrogen Ltd (Paisley, UK). This vector construct (pcD1mGR2) was co-transfected with a psvNeo plasmid encoding the gene for neomycin resistance, into CHO cells by a modified calcium phosphate method described by Chen & Okayama (1988). The cells were maintained in Dulbecco's Modified Eagle medium with reduced L-glutamine (1 mM final concentration), 36 mg/L L-Proline and 10% dialysed foetal calf serum from Gibco-Invitrogen; the medium was supplemented with 500 microM α-methyl-4-carboxyphenylglycine (MCPG). Selection was made in the presence of G-418 (300 ug/ml final concentration). Clones were identified by reverse transcription of 5 μg total RNA, followed by PCR using mGlu2 receptor specific primers 5′-[…]-3′ and 5′-[…]-3′ in 60 mM Tris HCl (pH 10), 15 mM (NH4)2SO4, 2 mM MgCl2, 25 units/ml Taq Polymerase with 30 cycles annealing at 60° C. for 1 min., extention at 72° C. for 30 s, and 1 min. 95° C. denaturation.
Cells, cultured as above, were harvested and washed three times with cold PBS and frozen at −80° C. The pellet was resuspended in cold 20 mM HEPES-NaOH buffer containing 10 mM EDTA (pH 7.4), and homogenised with a polytron (Kinematica, A G, Littau, Switzerland) for 10 s at 10 000 rpm. After centrifugation for 30 min. at 4° C., the pellet was washed once with cold 20 mM HEPES-NaOH buffer containing 0.1 mM EDTA, (pH 7.4). After a second centrifugation for 30 min. at 4° C. the pellet was resuspended in cold 20 mM HEPES-NaOH buffer containing 0.1 mM EDTA, (pH 7.4). Protein content was measured using the Micro BCA method from Pierce-Perbio (Rockford, Ill., USA) using bovine serum albumin as standard.
After thawing, the membranes were resuspended in cold 50 mM Tris-HCl buffer containing 2 mM MgCl2 (pH 7.4) (binding buffer). The final concentration of the membranes in the assays was 25 μg protein/ml. Inhibition experiments were performed with membranes incubated with 10 nM [^3H]-LY354740 at room temperature, for 1 hour, in presence of various concentrations of the compound to be tested. Following the incubations, membranes were filtered onto Whatmann GF/B glass fiber filters or onto GF/B Unifilter plates and washed 5 times with cold binding buffer. Non specific binding was measured in the presence of 10 μM (2S,2′R,3′R)-2-(2′3′-Dicarboxycyclopropyl)glycine (DCG IV from Tocris, Ellisville, Mo. USA). After transfer of the filters into plastic vials containing 10 ml of Ultima-gold scintillation fluid from Perkin-Elmer (Boston, Mass., USA), the radioactivity was measured by liquid scintillation in a Tri-Carb 2500 TR counter (Packard, Zürich, Switzerland). For 96-Unifilter plates the radioactivity was measured after addition of Microscint 40 scintillation fluid (Perkin Elmer, Boston Mass.) using a TopCount NXT (Packard)
The inhibition curves were fitted with a four parameter logistic equation giving IC50 values, and Hill coefficients.

T1 sequence (P31421 19-872): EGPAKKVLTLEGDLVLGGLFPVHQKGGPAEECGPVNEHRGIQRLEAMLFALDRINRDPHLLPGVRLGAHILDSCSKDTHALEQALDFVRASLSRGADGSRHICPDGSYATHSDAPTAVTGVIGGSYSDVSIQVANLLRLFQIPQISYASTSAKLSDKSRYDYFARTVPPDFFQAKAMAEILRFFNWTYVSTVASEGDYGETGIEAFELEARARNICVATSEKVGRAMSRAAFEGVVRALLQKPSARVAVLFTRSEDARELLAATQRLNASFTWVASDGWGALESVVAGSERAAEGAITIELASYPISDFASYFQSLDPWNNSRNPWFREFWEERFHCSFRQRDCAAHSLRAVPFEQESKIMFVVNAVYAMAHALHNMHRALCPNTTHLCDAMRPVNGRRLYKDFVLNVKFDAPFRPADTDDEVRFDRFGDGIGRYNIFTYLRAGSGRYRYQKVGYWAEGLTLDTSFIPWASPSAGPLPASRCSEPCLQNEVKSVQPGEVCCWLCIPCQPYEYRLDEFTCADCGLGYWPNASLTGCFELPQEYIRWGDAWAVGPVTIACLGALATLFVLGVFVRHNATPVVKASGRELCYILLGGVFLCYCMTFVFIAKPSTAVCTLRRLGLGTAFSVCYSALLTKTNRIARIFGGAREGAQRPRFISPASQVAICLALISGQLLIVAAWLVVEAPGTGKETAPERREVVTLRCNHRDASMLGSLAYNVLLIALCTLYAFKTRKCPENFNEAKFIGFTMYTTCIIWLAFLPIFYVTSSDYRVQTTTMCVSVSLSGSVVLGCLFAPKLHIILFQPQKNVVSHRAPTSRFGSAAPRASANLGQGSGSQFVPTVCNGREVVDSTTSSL

| Ki (rat mGlu2 receptor) | melting point | Structure (SMILES) |
| --- | --- | --- |
| 6 nM | 171 °C | OCc1ccc(-c2cccc(-c3nc(-c4ccc(C(F)(F)F)cc4)cc(C(F)(F)F)n3)c2)cc1 [Example 114, {3′-[4-Trifluoromethyl-6-(4-trifluoromethyl-phenyl)-pyrimidin-2-yl]-biphenyl-4-yl}-methanol] |
| 31 nM | 307 °C | NS(=O)(=O)c1ccc(-c2noc(-c3nc(-c4ccc(C(F)(F)F)cc4)cc(C(F)F)n3)n2)cc1 [Example 35, 4-{5-[4-Difluoromethyl-6-(4-trifluoromethyl-phenyl)-pyrimidin-2-yl]-[1,2,4]oxadiazol-3-yl}-benzenesulfonamide] |
| 42 nM | 140 °C | Cc1cc(-c2ccc(C(F)(F)F)cc2)cc(-c2cccc(C#N)c2)n1 [Example 242, 3-[6-Methyl-4-(4-trifluoromethyl-phenyl)-pyridin-2-yl]-benzonitrile] |
| 9 nM | 99 °C (dec.) | Cc1cc(-c2ccc(Cl)c(Cl)c2)cc(-c2cccc(-c3ccc(N)nc3)c2)n1 [Example 249, 5-{3-[4-(3,4-Dichloro-phenyl)-6-methyl-pyridin-2-yl]-phenyl}-pyridin-2-ylamine] |
| 1 nM | 208 to 211 °C | Cc1cc(-c2ccc(C(F)(F)F)cc2)cc(-c2cccc(-c3ccc(N)nc3)n2)n1 [Example 71, 6-Methyl-4-(4-trifluoromethyl-phenyl)-[2,2′;6′,3″]terpyridin-6″-ylamine] |
| 21 nM | 184 °C | O=S(=O)(c1cccc(-c2cc(-c3nc(-c4ccc(C(F)(F)F)cc4)cc(C(F)(F)F)n3)ccn2)c1)N1CCCC1 [Example 390, 2-{2-[3-(Pyrrolidine-1-sulfonyl)-phenyl]-pyridin-4-yl}-4-trifluoromethyl-6-(4-trifluoromethyl-phenyl)-pyrimidine] |
| 56 nM | 219 to 222 °C | Cc1cc(-c2ccc(C(F)(F)F)cc2)cc(-c2cccc(-c3cnc(N)nc3)n2)n1 [Example 72, 5-[6′-Methyl-4′-(4-trifluoromethyl-phenyl)-[2,2′]bipyridinyl-6-yl]-pyrimidin-2-ylamine] |
| 22 nM | 180 °C (dec.) | Cc1cc(-c2ccc(C(F)(F)F)cc2)cc(-c2ccnc(-c3cccc(S(=O)(=O)N4CCN(C)CC4)c3)c2)n1 [Example 350, 6-Methyl-2′-[3-(4-methyl-piperazine-1-sulfonyl)-phenyl]-4-(4-trifluoromethyl-phenyl)-[2,4′]bipyridinyl] |
| 58.3 nM | 164 to 166 °C | FC(F)(F)c1ccc(-c2cc(C(F)(F)F)cc(-c3cccc(-c4cccnc4)c3)n2)cc1 [Example 59, 2-(3-Pyridin-3-yl-phenyl)-4-trifluoromethyl-6-(4-trifluoromethyl-phenyl)-pyridine] |
| 4 nM | 115 °C | Cc1cc(-c2ccc(C(F)(F)F)cc2)cc(-c2ccnc(-c3cccc(S(=O)(=O)N4CCOCC4)c3)c2)n1 [Example 346, 6-Methyl-2′-[3-(morpholine-4-sulfonyl)-phenyl]-4-(4-trifluoromethyl-phenyl)-[2,4′]bipyridinyl] |
| 1 nM | 208 °C | Cc1cc(-c2ccc(C(F)(F)F)cc2)cc(-c2ccnc(-c3cccc(S(C)(=O)=O)c3)n2)n1 [Example 355, 2-(3-Methanesulfonyl-phenyl)-4-[6-methyl-4-(4-trifluoromethyl-phenyl)-pyridin-2-yl]-pyrimidine] |
| 60 nM | 233 to 235 °C | Nc1ccc(-c2cn(-c3cc(-c4ccc(C(F)(F)F)cc4)cc(C4CC4)n3)cn2)cn1 [Example 54, 5-{1-[6-Cyclopropyl-4-(4-trifluoromethyl-phenyl)-pyridin-2-yl]-1H-imidazol-4-yl}-pyridin-2-ylamine] |
| 74 nM | 175 °C | FC(F)(F)c1cc(-c2ccc(Cl)cc2)nc(-n2ccnc2)n1 [Example 1, 4-(4-Chloro-phenyl)-2-imidazol-1-yl-6-trifluoromethyl-pyrimidine] |
| 4 nM | 200 °C | Cc1cc(-c2ccc(C(F)(F)F)cc2)nc(-c2cccc(-c3cccc(S(N)(=O)=O)c3)c2)c1 [Example 274, 3′-[4-Methyl-6-(4-trifluoromethyl-phenyl)-pyridin-2-yl]-biphenyl-3-sulfonic acid amide] |
| 4 nM | 277 °C | Cc1cc(-c2ccc(C(F)(F)F)cc2)cc(-c2nc(-c3cccc(S(N)(=O)=O)c3)no2)n1 [Example 237, 3-{5-[6-Methyl-4-(4-trifluoromethyl-phenyl)-pyridin-2-yl]-[1,2,4]oxadiazol-3-yl}-benzenesulfonamide] |
| 3 nM | 110 °C (dec.) | Cc1cc(-c2ccc(C(F)(F)F)cc2)cc(-c2cccc(-c3cccc(S(C)(=O)=O)c3)c2)n1 [Example 353, 2-(3′-Methanesulfonyl-biphenyl-3-yl)-6-methyl-4-(4-trifluoromethyl-phenyl)-pyridine] |
| 23 nM | 233 °C | Cc1cc(-c2ccc(Cl)cc2)nc(-n2cnc(-c3cccc(S(C)(=O)=O)c3)c2)n1 [Example 210, 4-(4-Chloro-phenyl)-2-[4-(3-methanesulfonyl-phenyl)-imidazol-1-yl]-6-methyl-pyrimidine] |
| 13.7 nM | 281 °C | Nc1ncc(-c2cn(-c3nc(-c4cccc(Cl)c4)cc(C(F)(F)F)n3)cn2)cn1 [Example 187, 5-{1-[4-(3-Chloro-phenyl)-6-trifluoromethyl-pyrimidin-2-yl]-1H-imidazol-4-yl}-pyrimidin-2-ylamine] |
| 49 nM | 248 °C | FC(F)(F)c1ccc(-c2cc(C(F)(F)F)nc(-n3cnc(-c4ccncc4)n3)n2)cc1 [Example 148, 2-(3-Pyridin-4-yl-[1,2,4]triazol-1-yl)-4-trifluoromethyl-6-(4-trifluoromethyl-phenyl)-pyrimidine] |
| 41 nM | 227 °C | Cc1cc(-c2ccc(Cl)c(Cl)c2)cc(-n2ccnc2)n1 [Example 247, 4-(3,4-Dichloro-phenyl)-2-imidazol-1-yl-6-methyl-pyridine] |
| 3 nM | 68 to 90 °C | Cc1cc(-c2ccc(C(F)(F)F)cc2)cc(-c2cccc(-c3ccc(N)nc3)c2)n1 [Example 62, 5-{3-[6-Methyl-4-(4-trifluoromethyl-phenyl)-pyridin-2-yl]-phenyl}-pyridin-2-ylamine] |
| 3 nM | 211 °C | NS(=O)(=O)c1cccc(-c2noc(-c3cc(C(F)(F)F)cc(-c4ccc(C(F)(F)F)cc4)n3)n2)c1 [Example 243, 3-{5-[4-Trifluoromethyl-6-(4-trifluoromethyl-phenyl)-pyridin-2-yl]-[1,2,4]oxadiazol-3-yl}-benzenesulfonamide] |
| 7 nM | 202 °C | O=S(=O)(c1cccc(-c2cc(-c3nc(-c4ccc(C(F)(F)F)cc4)cc(C(F)(F)F)n3)ccn2)c1)N1CCOCC1 [Example 377, 4-(3-{4-[4-Trifluoromethyl-6-(4-trifluoromethyl-phenyl)-pyrimidin-2-yl]-pyridin-2-yl}-benzenesulfonyl)-morpholine] |
| 6 nM | 245 to 247 °C | Nc1ccc(-c2cn(-c3cc(C(F)(F)F)cc(-c4ccc(C(F)(F)F)cc4)n3)cn2)cn1 [Example 65, 5-{1-[4-Trifluoromethyl-6-(4-trifluoromethyl-phenyl)-pyridin-2-yl]-1H-imidazol-4-yl}-pyridin-2-ylamine] |
